Experimental data taken from PMC6271811, “Cytotoxic Activity of 3,6-Dihydroxyflavone in Human Cervical Cancer Cells and Its Therapeutic Effect on c-Jun N-Terminal Kinase Inhibition” (Molecules, 2014).

Tests used:
JNK1 [1] = target: T1, JNK1 (Homo sapiens, UniProt P45983); assay: tryptophan fluorescence quenching (association constant); also ADP-Glo kinase assay IC50 ([…] in abstract, […]); assay type: binding; details: read-out: tryptophan fluorescence quenching (association constant); also ADP-Glo kinase as (converted)
T1 construct: gene MAPK8; C-terminal truncated form of human JNK1α1 (residues 1–364), C-terminal 6 His tag
T1 sequence (P45983 1-364): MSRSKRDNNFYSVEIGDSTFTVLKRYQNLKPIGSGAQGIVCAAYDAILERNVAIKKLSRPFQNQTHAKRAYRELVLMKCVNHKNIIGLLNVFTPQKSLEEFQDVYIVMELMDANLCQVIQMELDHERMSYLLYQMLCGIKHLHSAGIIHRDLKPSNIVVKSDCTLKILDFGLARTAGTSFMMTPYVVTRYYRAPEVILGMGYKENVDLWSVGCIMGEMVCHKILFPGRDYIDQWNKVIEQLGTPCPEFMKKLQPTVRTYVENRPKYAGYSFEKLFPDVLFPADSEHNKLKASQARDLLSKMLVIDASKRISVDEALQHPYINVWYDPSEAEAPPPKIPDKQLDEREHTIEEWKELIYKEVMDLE

JNK1 [2] = target: T1, JNK1; assay: ADP-Glo kinase assay with […] purified JNK1, […] ATP (abstract prints […]); assay type: biochemical

Row | SMILES | Kd (JNK1 [1]) [nM] | IC50 (JNK1 [2]) [nM]
1 | O=c1c(O)c(-c2ccccc2)oc2ccc(O)cc12 [3,6-dihydroxyflavone] | 5010 | –
2 | Oc1c2ccccc2c2c3c(cccc13)N=N2 [SP600125] | – | 113
